Tests used:
Conditions in all cases: 25 µM pACP, 24 h, maintenance medium 1% FBS, ratio of viability to vehicle (PBS), at least three technical repetitions
Hela = assay: MTT primary screening of anticancer activity, Hela; format: cell-based, Human
From the text: (§1) We successfully chemically synthesized 40 pACPs for the purpose of in vitro or in vivo characterization of their potential anticancer efficacy. In the initial step, we conducted an in vitro primary screen of these 40 pACPs using a panel of 16 different cancer cell lines, including four human CRC lines (HT29, Caco2, HCT116, and […]), as well as 12 other cancer models (Table S4, Supporting Information). We deliberately selected a diverse panel of cell lines to assess the effect of pACPs across various genetic backgrounds. Briefly, the cancer cells were cultured in specific media (details provided in the Experimental Section) and then treated with pACPs at a final concentration of 25 µM. Peptides with minimum effective inhibition concentrations >25 µM were considered non‐ACPs. After exposure to pACPs, the survival rate of the cancer cells was measured using the MTT assay. Remarkably, 39 out of the 40 pACPs (97.5%) induced at least 20% inhibition in at least one cell line (Figure 3a and Table S5, Supporting Information). […] Thus, our method successfully identified pACPs with a very high rate of anticancer effects across various cancer cell lines.
(§2) To evaluate the activity of the 40 potentially effective pACPs, a panel of 16 cancer cell lines was treated, including human CRC cell lines (HT29, Caco‐2, HCT116). Details of the cell lines used, respective media, and culture conditions were presented in Table S1 (Supporting Information). Once the cells reached 60% confluence, it was incubated with each candidate peptide at a concentration of 25 µM pACPs for 24 h. Concurrently, the complete medium was replaced with a maintenance medium containing only 1% FBS. Subsequently, the viability of each cell line using the MTT Cell Proliferation and Cytotoxicity Assay Kit according to the manufacturer's instructions was assessed. […] For the CRC cell line CT26, it was calculated the CC50 value using two peptides (pACP1780 and pACP2283) with relevant data presented in Table S6 (Supporting Information). The calculation was performed using an online tool: https://www.aatbio.com/tools/ic50‐calculator.

EFM192A = assay: MTT primary screening of anticancer activity, EFM192A; format: cell-based
From the text: as §1, §2

HCT116 = assay: MTT primary screening of anticancer activity, HCT116; format: cell-based, Human
From the text: as §1, §2

CT26 = assay: MTT primary screening of anticancer activity, CT26; format: cell-based, Murine
From the text: as §1, §2

BT474 = assay: MTT primary screening of anticancer activity, BT474; format: cell-based
From the text: as §1, §2

T47D = assay: MTT primary screening of anticancer activity, T47D; format: cell-based
From the text: as §1, §2

MDA-MB-468 = assay: MTT primary screening of anticancer activity, MDA-MB-468; format: cell-based
From the text: as §1, §2

HT29 = assay: MTT primary screening of anticancer activity, HT29; format: cell-based, Human
From the text: as §1, §2

MDA-MB-436 = assay: MTT primary screening of anticancer activity, MDA-MB-436; format: cell-based
From the text: as §1, §2

MCF7 = assay: MTT primary screening of anticancer activity, MCF7; format: cell-based
From the text: as §1, §2

Caco2 = assay: MTT primary screening of anticancer activity, Caco2; format: cell-based, Human
From the text: as §1, §2

SK-BR-3 = assay: MTT primary screening of anticancer activity, SK-BR-3; format: cell-based
From the text: as §1, §2

LCC = assay: MTT primary screening of anticancer activity, LCC; format: cell-based
From the text: as §1, §2

MDA-MB-231 = assay: MTT primary screening of anticancer activity, MDA-MB-231; format: cell-based
From the text: as §1, §2

B16 = assay: MTT primary screening of anticancer activity, B16; format: cell-based, Mouse
From the text: as §1, §2

MDA-MB-453 = assay: MTT primary screening of anticancer activity, MDA-MB-453; format: cell-based
From the text: as §1, §2

| Sequence | Survival rate of cancer cells in primary screening (Hela) | Survival rate of cancer cells in primary screening (EFM192A) | Survival rate of cancer cells in primary screening (HCT116) | Survival rate of cancer cells in primary screening (CT26) | Survival rate of cancer cells in primary screening (BT474) | Survival rate of cancer cells in primary screening (T47D) | Survival rate of cancer cells in primary screening (MDA-MB-468) | Survival rate of cancer cells in primary screening (HT29) | Survival rate of cancer cells in primary screening (MDA-MB-436) | Survival rate of cancer cells in primary screening (MCF7) | Survival rate of cancer cells in primary screening (Caco2) | Survival rate of cancer cells in primary screening (SK-BR-3) | Survival rate of cancer cells in primary screening (LCC) | Survival rate of cancer cells in primary screening (MDA-MB-231) | Survival rate of cancer cells in primary screening (B16) | Survival rate of cancer cells in primary screening (MDA-MB-453) |
| --- | --- | --- | --- | --- | --- | --- | --- | --- | --- | --- | --- | --- | --- | --- | --- | --- |
| GWKKSQCCRNGFYRERGQQQAKNFMSQESFPVRENGE [pACP602] | 1.00 | 1.00 | 1.00 | 1.00 | 1.00 | 0.70 | 1.00 | 1.00 | 1.00 | 0.77 | 1.00 | 1.00 | 1.00 | 1.00 | 0.80 | 1.00 |
| CRLCTHGNVSACVLGKNAVFSVSAHNSDCPQPTCDFSSPLEECLESS [pACP177] | 1.00 | 1.00 | 1.00 | 1.00 | 1.00 | 0.59 | 1.00 | 1.00 | 1.00 | 1.00 | 1.00 | 1.00 | 1.00 | 1.00 | 0.73 | 1.00 |
| YRKCDTAGGLSKLCVAEKDIKIIWKYGGR [pACP2334] | 1.00 | 1.00 | 1.00 | 1.00 | 1.00 | 0.78 | 1.00 | 1.00 | 1.00 | 1.00 | 1.00 | 1.00 | 1.00 | 1.00 | 0.76 | 1.00 |
| SVGKRCKMGKNYKTVPALKGIPLAGGTYNTRNRSGSG [pACP2037] | 1.00 | 1.00 | 1.00 | 1.00 | 1.00 | 0.74 | 1.00 | 1.00 | 1.00 | 1.00 | 1.00 | 1.00 | 1.00 | 1.00 | 0.78 | 1.00 |

From article PMC10477861, “Efficient Mining of Anticancer Peptides from Gut Metagenome” (Advanced Science, 2023)
